Each structure is given as a SMILES string.

In the test the target is T1, LecA (Pseudomonas aeruginosa, UniProt Q05097).
T1 construct: FITC-labeled LecA
The test can be described thus: ELISA-type competition assay on a glycochip: inhibition of FITC-labeled LecA binding to a galactoside-functionalized surface. (In general: An ELISA detects its analyte on a solid surface through an enzyme-linked reagent.)

T1 sequence (Q05097 2-122): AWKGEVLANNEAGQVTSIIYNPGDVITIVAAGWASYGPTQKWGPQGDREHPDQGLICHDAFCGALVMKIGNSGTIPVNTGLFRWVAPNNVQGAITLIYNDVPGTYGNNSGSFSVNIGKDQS

A word on the IC50: it is the concentration that gives 50% inhibition. Compound `COCCOCCOc1cc(C#Cc2cc(OCCOCCOC)c(-c3cn(CCCO[C@@H]4O[C@H](CO)[C@H](O)[C@H](O)[C@H]4O)nn3)cc2OCCOCCOC)c(OCCOCCOC)cc1C#Cc1cc(OCCOCCOC)c(-c2cn(CCCO[C@@H]3O[C@H](CO)[C@H](O)[C@H](O)[C@H]3O)nn2)cc1OCCOCCOC` [compound 22, divalent ligand 22] registered an IC50 of 900 nM.

Source of the values: publication PMC3566787, “Efficient synthesis of phenylene-ethynylene rods and their use as rigid spacers in divalent inhibitors” (Beilstein Journal of Organic Chemistry, 2013).
